Assay results: US7202280B2, “Methods for the treatment and prevention of pancreatitis and for induction of liver regeneration” (priority 2002, dated 2007)

Columns and labels:
[1] = tested on: syngenic and metallothionein-SSAT mice; test: Hepatic, pancreatic and renal polyamine concentration in syngenic and metallothionein-SSAT mice after analogue; assay type: in vivo, mouse; settings: Tg mice, 24 h
Procedure: (§1) α-methylspermidine, Bis-α-methylspermine and α-methylspermine were administered in saline. […] The data are expressed as means ±S.D. For statistical analysis, the two-tailed Student's t test was used.

[2] = tested on: syngenic and UKU181 transgenic mice; test: Plasma α-amylase and ALAT in syngenic and transgenic mice after analogue injection; assay type: in vivo, mouse; settings: 24 h; for Plasma α-amylase: not corrected constant
Procedure: as §1

## CC(N)CCNCCCCN (stereo not drawn) [α-methylspermidine, 1-methylspermidine]
[1]; 50 mg/kg
  pancreatic Spermine: 224.17 pmoles/mg tissue wet weight
  pancreatic α-Methyl-spermidine: 627.87 pmoles/mg tissue wet weight
  renal N^1-Acetylspermidine: 49.14 pmoles/mg tissue wet weight
  renal Putrescine: 179.10 pmoles/mg tissue wet weight
  renal Spermidine: 231.02 ± 15.59 pmoles/mg tissue wet weight
  renal Spermine: 896.89 ± 25.61 pmoles/mg tissue wet weight
  renal α-Methylspermidine: 133.67 pmoles/mg tissue wet weight
[1]; 100 mg/kg
  hepatic N^1-Acetyl-spermidine: 293.66 pmoles/mg tissue wet weight
  hepatic Putrescine: 834.88 pmoles/mg tissue wet weight
  hepatic Spermidine: 286.11 pmoles/mg tissue wet weight
  hepatic Spermine: 97.52 ± 52.21 pmoles/mg tissue wet weight
  hepatic α-Methyl-spermidine: 676.44 pmoles/mg tissue wet weight
  pancreatic N^1-Acetyl-spermidine: 656.51 pmoles/mg tissue wet weight
  pancreatic Putrescine: 4467.46 pmoles/mg tissue wet weight
  pancreatic Spermidine: 1539.88 ± 351.44 pmoles/mg tissue wet weight
  pancreatic Spermine: 211.73 pmoles/mg tissue wet weight
  pancreatic α-Methyl-spermidine: 731.63 pmoles/mg tissue wet weight
  renal N^1-Acetylspermidine: 65.00 pmoles/mg tissue wet weight
  renal Putrescine: 133.86 pmoles/mg tissue wet weight
  renal Spermidine: 212.40 ± 10.9 pmoles/mg tissue wet weight
  renal Spermine: 840.58 ± 67.32 pmoles/mg tissue wet weight
  renal α-Methylspermidine: 136.61 pmoles/mg tissue wet weight
[1]; 150 mg/kg
  hepatic N^1-Acetyl-spermidine: 230.96 pmoles/mg tissue wet weight
  hepatic Putrescine: 603.18 pmoles/mg tissue wet weight
  hepatic Spermidine: 260.13 pmoles/mg tissue wet weight
  hepatic Spermine: 79.41 ± 25.11 pmoles/mg tissue wet weight
  hepatic α-Methyl-spermidine: 1206.94 pmoles/mg tissue wet weight
  pancreatic N^1-Acetyl-spermidine: 185.50 pmoles/mg tissue wet weight
  pancreatic Putrescine: 4457.91 pmoles/mg tissue wet weight
  pancreatic Spermidine: 1244.49 ± 565.07 pmoles/mg tissue wet weight
  pancreatic Spermine: 213.86 pmoles/mg tissue wet weight
  pancreatic α-Methyl-spermidine: 942.74 pmoles/mg tissue wet weight
  renal N^1-Acetylspermidine: 41.78 pmoles/mg tissue wet weight
  renal Putrescine: 119.47 pmoles/mg tissue wet weight
  renal Spermidine: 201.24 ± 19.1 pmoles/mg tissue wet weight
  renal Spermine: 721.39 ± 64.84 pmoles/mg tissue wet weight
  renal α-Methylspermidine: 148.99 pmoles/mg tissue wet weight
[1]; 250 mg/kg
  hepatic N^1-Acetyl-spermidine: 211.54 pmoles/mg tissue wet weight
  hepatic Putrescine: 444.97 pmoles/mg tissue wet weight
  hepatic Spermidine: 199.53 pmoles/mg tissue wet weight
  hepatic Spermine: 36.38 ± 9.89 pmoles/mg tissue wet weight
  hepatic α-Methyl-spermidine: 1293.76 pmoles/mg tissue wet weight
  pancreatic N^1-Acetyl-spermidine: 137.01 pmoles/mg tissue wet weight
  pancreatic Putrescine: 4637.87 pmoles/mg tissue wet weight
  pancreatic Spermidine: 967.83 ± 396.04 pmoles/mg tissue wet weight
  pancreatic Spermine: 157.23 pmoles/mg tissue wet weight
  pancreatic α-Methyl-spermidine: 1166.56 pmoles/mg tissue wet weight
  renal N^1-Acetylspermidine: 48.47 pmoles/mg tissue wet weight
  renal Putrescine: 103.63 pmoles/mg tissue wet weight
  renal Spermidine: 185.82 ± 18.56 pmoles/mg tissue wet weight
  renal Spermine: 597.01 ± 91.36 pmoles/mg tissue wet weight
  renal α-Methylspermidine: 169.73 pmoles/mg tissue wet weight
[1]; 375 mg/kg
  hepatic N^1-Acetyl-spermidine: 252.33 pmoles/mg tissue wet weight
  hepatic Putrescine: 861.39 pmoles/mg tissue wet weight
  hepatic Spermidine: 168.25 pmoles/mg tissue wet weight
  hepatic Spermine: 41.95 ± 8.02 pmoles/mg tissue wet weight
  hepatic α-Methyl-spermidine: 1012.46 pmoles/mg tissue wet weight
  pancreatic N^1-Acetyl-spermidine: 95.41 pmoles/mg tissue wet weight
  pancreatic Putrescine: 4826.59 pmoles/mg tissue wet weight
  pancreatic Spermidine: 1002.33 ± 365.29 pmoles/mg tissue wet weight
  pancreatic Spermine: 122.49 pmoles/mg tissue wet weight
  pancreatic α-Methyl-spermidine: 1378.62 pmoles/mg tissue wet weight
  renal N^1-Acetylspermidine: 44.65 pmoles/mg tissue wet weight
  renal Putrescine: 127.41 pmoles/mg tissue wet weight
  renal Spermidine: 173.73 ± 13.69 pmoles/mg tissue wet weight
  renal Spermine: 580.26 ± 51.87 pmoles/mg tissue wet weight
  renal α-Methylspermidine: 192.90 pmoles/mg tissue wet weight
[2]; Sg mice, 50 mg/kg
  Plasma ALAT: 17.90 U/dm^3
  Plasma α-amylase: 266.76 ± 23.00 ^+ U/dm^3
[2]; Sg mice, 100 mg/kg
  Plasma ALAT: 19.21 U/dm^3
  Plasma α-amylase: 281.81 ± 24.11 U/dm^3
[2]; Sg mice, 150 mg/kg
  Plasma ALAT: 18.33 U/dm^3
  Plasma α-amylase: 284.83 ± 26.90 U/dm^3
[2]; Sg mice, 250 mg/kg
  Plasma ALAT: 66.00 U/dm^3
  Plasma α-amylase: 287.41 ± 74.99 U/dm^3
[2]; Sg mice, 375 mg/kg
  Plasma ALAT: 111.39 U/dm^3
  Plasma α-amylase: 654.32 ± 402.95 U/dm^3
[2]; Sg mice, 500 mg/kg
  Plasma ALAT: 32.74 U/dm^3
  Plasma α-amylase: 370.45 ± 104.58 U/dm^3
[2]; Tg mice, 50 mg/kg
  Plasma ALAT: 34.92 U/dm^3
  Plasma α-amylase: 341.62 ± 44.99 U/dm^3
[2]; Tg mice, 100 mg/kg
  Plasma ALAT: 44.96 U/dm^3
  Plasma α-amylase: 302.90 ± 29.54 U/dm^3
[2]; Tg mice, 150 mg/kg
  Plasma ALAT: 41.90 U/dm^3
  Plasma α-amylase: 275.79 ± 34.37 U/dm^3
[2]; Tg mice, 250 mg/kg
  Plasma ALAT: 34.05 U/dm^3
  Plasma α-amylase: 389.38 ± 213.31 U/dm^3
[2]; Tg mice, 375 mg/kg
  Plasma ALAT: 52.38 U/dm^3
  Plasma α-amylase: 314.51 ± 20.72 U/dm^3
